# Measurements published in patent publication US20060173015A1, “Cyclohexyldiamines as selective alpha 1a/1d adrenoreceptor antagonists for the treatment of benign prostatic hypertrophy and lower urinary tract symptoms” (priority 2004, published 2006).
# Key:
# α1b-AR = target: T1, α1b-AR (Homo sapiens, UniProt P35368); experiment: α1-Adrenergic receptor radio-ligand (125I-HEAT) binding assay, α1b subtype; settings: Receptor Binding, Ki α1b-AR, COS-7 cell membranes, 125I-HEAT
# T1 sequence (P35368 1-520): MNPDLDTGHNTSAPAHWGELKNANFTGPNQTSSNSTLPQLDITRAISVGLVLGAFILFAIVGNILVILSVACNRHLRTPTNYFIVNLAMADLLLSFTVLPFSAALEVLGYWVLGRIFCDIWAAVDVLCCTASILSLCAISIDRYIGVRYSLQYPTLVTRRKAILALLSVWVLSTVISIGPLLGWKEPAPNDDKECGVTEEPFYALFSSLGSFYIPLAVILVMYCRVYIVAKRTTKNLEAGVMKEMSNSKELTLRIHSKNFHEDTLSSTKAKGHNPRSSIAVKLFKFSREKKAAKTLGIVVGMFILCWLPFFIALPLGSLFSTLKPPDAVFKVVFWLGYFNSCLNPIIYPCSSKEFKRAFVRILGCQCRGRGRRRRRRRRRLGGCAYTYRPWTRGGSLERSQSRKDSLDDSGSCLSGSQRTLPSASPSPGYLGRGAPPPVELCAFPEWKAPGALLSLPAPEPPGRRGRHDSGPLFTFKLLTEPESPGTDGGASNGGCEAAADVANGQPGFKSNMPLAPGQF
# [1] = test system: Prostatic Intraurethral Pressure (IUP); experiment: Phenylephrine-induced prostatic IUP in an anesthetized canine model; assay type: in vivo; settings: anesthetized dog
# Procedure: In-Vivo Evaluation of α1-Adrenergic Antagonists on Prostatic Intraurethral Pressure (IUP) and Mean Arterial Pressure (MAP) in an Anesthetized Canine Model
# An anesthetized dog was fitted with a balloon catheter for the measurement of changes in prostatic IUP and with a non-invasive blood pressure (NIBP) cuff for determination of MAP.
# The pressor effects of challenge doses (i.v.) of the α-adrenergic agonist phenylephrine upon IUP and MAP were measured before and at various time points after a single dose (i.v.) of an α-adrenergic antagonist test compound (Compound 69) of the present invention.
# Each treatment group was dosed with a test compound (0.01, 0.03, 0.1 and 0.5 mg/kg) in four separate experiments. The first challenge dose of phenylephrine was administered 30 mins prior to the test compound dose and at 30 min intervals thereafter for a total time period of 5 hrs (i.e at time minus 30 mins, time plus 30 mins, 1 hr, 1.5 hrs, 2 hrs, 2.5 hrs, 3 hrs, 3.5 hrs, 4 hrs, 4.5 hrs and 5 hrs).
# The animals were fasted overnight, anesthetized with propofol (4 mg/kg IV or to effect), then intubated and anesthesia maintained using inhalation isoflurane (1-2% in oxygen at a flow rate of 2 l/min) with animals breathing spontaneously.
# A 7F Fogarty balloon catheter lubricated with a water-soluble jelly was inserted into the urethra and advanced into the bladder (approximately 40 cm). The balloon was inflated with approximately water (0.2 mL). The catheter was slowly withdrawn from the bladder to just past the point of first resistance from the bladder neck in order to position the balloon within the prostatic urethra. The balloon was then inflated to approximately 0.7 mL. The balloon port of the catheter was connected to a Gould Statham pressure transducer, the output of which was connected to the pressure input of a Physio Control VSM1 Patient Monitor.
# A test compound was administered via the cephalic vein using an appropriately sized IV catheter (Surflo, Terumo Medical Corporation or equivalent).
# Prior to test compound administration, IUP and MAP responses to an individualized dose of phenylephrine (either 10 or 15 μg/kg IV, depending on the individual animal's response) was repeated 2 to 3 times to establish a baseline response. After test compound administration, the individualized phenylephrine dose was administered to each animal at 30 minute intervals over a period of 5 hours.
# Data for phenylephrine-induced changes in IUP and MAP were tabulated for each treatment group and each experiment. A mean value and standard deviation for the phenylephrine-induced changes to the effect of a test compound on IUP and MAP at each dose was calculated and tabulated for each treatment group over the length of the 5.5 hour study.
structure (smiles),measurement,setting,value
"COc1ccc(S(=O)(=O)N[C@H]2CC[C@@H](N3CCN(c4ccccc4OCC(F)(F)F)CC3)CC2)cc1OC [Cpd 69, 3,4-Dimethoxy-N-cis-(4-{4-[2-(2,2,2-trifluoro-ethoxy)-phenyl]-piperazin-1-yl}-cyclohexyl)-benzenesulfonamide]",Ki,α1b-AR,100 nM
same,"IUP, normalized % of baseline (mean)","[1]; 0.01 mg/kg i.v., 0 hrs (baseline)",100%
same,"IUP, normalized % of baseline (mean)","[1]; 0.01 mg/kg i.v., 0.5 hrs after dose",78.1%
same,"IUP, normalized % of baseline (mean)","[1]; 0.01 mg/kg i.v., 1 hrs after dose",81.9%
same,"IUP, normalized % of baseline (mean)","[1]; 0.01 mg/kg i.v., 2 hrs after dose",83.6%
same,"IUP, normalized % of baseline (mean)","[1]; 0.01 mg/kg i.v., 3 hrs after dose",83.3%
same,"IUP, normalized % of baseline (mean)","[1]; 0.01 mg/kg i.v., 4 hrs after dose",83.0%
same,"IUP, normalized % of baseline (mean)","[1]; 0.01 mg/kg i.v., 5 hrs after dose",84.5%
same,"IUP, normalized % of baseline (mean)","[1]; 0.03 mg/kg i.v., 0 hrs (baseline)",100%
same,"IUP, normalized % of baseline (mean)","[1]; 0.03 mg/kg i.v., 0.5 hrs after dose",64.8%
same,"IUP, normalized % of baseline (mean)","[1]; 0.03 mg/kg i.v., 1 hrs after dose",64.8%
same,"IUP, normalized % of baseline (mean)","[1]; 0.03 mg/kg i.v., 1.5 hrs after dose",70.8%
same,"IUP, normalized % of baseline (mean)","[1]; 0.03 mg/kg i.v., 2 hrs after dose",71.1%
same,"IUP, normalized % of baseline (mean)","[1]; 0.03 mg/kg i.v., 2.5 hrs after dose",79.1%
same,"IUP, normalized % of baseline (mean)","[1]; 0.03 mg/kg i.v., 3 hrs after dose",81.1%
same,"IUP, normalized % of baseline (mean)","[1]; 0.03 mg/kg i.v., 3.5 hrs after dose",81.6%
same,"IUP, normalized % of baseline (mean)","[1]; 0.03 mg/kg i.v., 4 hrs after dose",84.8%
same,"IUP, normalized % of baseline (mean)","[1]; 0.03 mg/kg i.v., 4.5 hrs after dose",83.5%
same,"IUP, normalized % of baseline (mean)","[1]; 0.03 mg/kg i.v., 5 hrs after dose",83.8%
same,"IUP, normalized % of baseline (mean)","[1]; 0.1 mg/kg i.v., 0 hrs (baseline)",100%
same,"IUP, normalized % of baseline (mean)","[1]; 0.1 mg/kg i.v., 0.5 hrs after dose",39.5%
same,"IUP, normalized % of baseline (mean)","[1]; 0.1 mg/kg i.v., 1 hrs after dose",48.4%
same,"IUP, normalized % of baseline (mean)","[1]; 0.1 mg/kg i.v., 1.5 hrs after dose",56.3%
same,"IUP, normalized % of baseline (mean)","[1]; 0.1 mg/kg i.v., 2 hrs after dose",61.3%
same,"IUP, normalized % of baseline (mean)","[1]; 0.1 mg/kg i.v., 2.5 hrs after dose",67.1%
same,"IUP, normalized % of baseline (mean)","[1]; 0.1 mg/kg i.v., 3 hrs after dose",69.9%
same,"IUP, normalized % of baseline (mean)","[1]; 0.1 mg/kg i.v., 3.5 hrs after dose",75.2%
same,"IUP, normalized % of baseline (mean)","[1]; 0.1 mg/kg i.v., 4 hrs after dose",78.8%
same,"IUP, normalized % of baseline (mean)","[1]; 0.1 mg/kg i.v., 4.5 hrs after dose",74.2%
same,"IUP, normalized % of baseline (mean)","[1]; 0.1 mg/kg i.v., 5 hrs after dose",77.3%
same,"IUP, normalized % of baseline (mean)","[1]; 0.5 mg/kg i.v., 0 hrs (baseline)",100%
same,"IUP, normalized % of baseline (mean)","[1]; 0.5 mg/kg i.v., 0.5 hrs after dose",17.4%
same,"IUP, normalized % of baseline (mean)","[1]; 0.5 mg/kg i.v., 1 hrs after dose",16.1%
same,"IUP, normalized % of baseline (mean)","[1]; 0.5 mg/kg i.v., 1.5 hrs after dose",27.0%
same,"IUP, normalized % of baseline (mean)","[1]; 0.5 mg/kg i.v., 2 hrs after dose",29.1%
same,"IUP, normalized % of baseline (mean)","[1]; 0.5 mg/kg i.v., 2.5 hrs after dose",36.1%
same,"IUP, normalized % of baseline (mean)","[1]; 0.5 mg/kg i.v., 3 hrs after dose",38.8%
same,"IUP, normalized % of baseline (mean)","[1]; 0.5 mg/kg i.v., 3.5 hrs after dose",45.5%
same,"IUP, normalized % of baseline (mean)","[1]; 0.5 mg/kg i.v., 4 hrs after dose",46.4%
same,"IUP, normalized % of baseline (mean)","[1]; 0.5 mg/kg i.v., 4.5 hrs after dose",48.0%
same,"IUP, normalized % of baseline (mean)","[1]; 0.5 mg/kg i.v., 5 hrs after dose",54.4%
